Where two headings read alike, the source gives them in different places. Residues, ends and D or L forms follow the SMILES beside them.
What was measured:
[1] = target: hippocampal NMDA receptors; experiment: Radioligand analysis of NMDA receptors with [3H] (+) MK-801; format: binding, rat; conditions: [3H] (+) MK-801, room temperature, 2 hours; read-out: IC50 of displacement curve
Excerpt: Hippocampal plasma membranes were isolated using modified methods (Zhou et al. (1997). (2S,4R)-4-methylglutamic acid (SYM 2081): a selective, high-affinity ligand for kainate receptors. J. Pharmacol. Exp. Ther., 280(1), 422-427, LePage et al. (2005). Differential binding properties of [^3H] dextrorphan and [^3H] MK-801 in heterologously expressed NMDA receptors. Neuropharmacol., 49(1), 1-16). After decapitation, the tissue was immediately frozen in liquid nitrogen and stored in a low-temperature refrigerator at −80° C. On the day of the experiment, the hippocampi were homogenized “Teflon-glass” in a Potter homogenizer in 10 volumes of buffer No. 1 (5 mM HEPES, 4.5 mM Tris, 0.32 M Sucrose, pH 7.6). The homogenate was diluted with 50 volumes of buffer No. 2 (5 mM HEPES, 4.5 mM Tris, pH 7.6) and centrifuged at 1000 g for 10 minutes on an Optima L-70K ultracentrifuge (Beckman Coulter). The supernatant was […] and centrifuged again at 25000 g for 20 minutes. To increase the protein yield, this operation was performed twice. The resulting precipitate was resuspended in 50 volumes of buffer No. 2 and centrifuged at 8000 g for 20 minutes. […]
The IC50 value with respect to the binding of labeled ligands was determined by adding 50 μl of the test compounds to the incubation medium at final concentrations of 10^−10-10^−4 M. The volume of the incubation mixture was 500 μl. […]

[2] = test system: benzodiazepine site of GABAA receptors
Method: The incubation mixture (final volume 0.5 ml) contained 50 μl of […]

[3] = set-up: species or system rats; conditions: rat, in vivo
Method: Tritium-labeled peptide FQSE (SEQ ID NO:10) was administered intranasally (i.n.) at a dose of 500 μg/kg diluted in saline. The administered sample contained 2000 pKi of tritium-labeled peptide [^3H] FQSE (SEQ ID NO:10). In 6 minutes after the administration, test samples of brain, blood and urine were obtained.
The study was carried out using tritium-labeled peptide FQSE (SEQ ID NO:10). For that, rats were administered with 2000 pKi [^3H] FQSE (SEQ ID NO:10) in dose 500 μg/kg (about 150 μg). The solutions administered to animals were prepared using saline solution. The volume of the solution for intranasal administration was 20 μl for rats.
In rat experiments, product FQSE (SEQ ID NO:10) was administered as a single, bolus, intranasal injection. Preliminarily, rats were anesthetized with chloral hydrate (300 mg/kg), and in 10 min, product FQSE (SEQ ID NO:10) was administered in volume 20 μl, in dose 500 μg/kg which contained 2000 pKi of labeled peptide [^3H]FQSE (SEQ ID NO:10). Rats were decapitated in 6 minutes after the product administration. […]
The quantitative analysis of peptides was performed with HPLC on column Kromasil C18, 4×150 mm in methanol gradient (0-40%), presence of 0.08% TEA and 0.02% HBA (heptafluorobutyric acid). The fractions containing peptide FQSE (SEQ ID NO:10) were collected, and their radioactivity was determined with liquid scintillation counting.

Structure (SMILES) | IC50 [1] | Specific binding of [3H]-Flunitrazepam, relative to control levels ([2]; Diazepam 10^−6M + FQSE 10^−4M, 25 min pre-incubation + 30 min incubation, 4° C.) | Specific binding of [3H]-Flunitrazepam, relative to control levels ([2]; Diazepam 10^−6M + FQSE 10^−4M, 25 min pre-incubation + 30 min incubation, 24° C.) | Specific binding of [3H]-Flunitrazepam, relative to control levels ([2]; Diazepam 10^−6M + FQSE 10^−4M, 30 min incubation, 4° C.) | Specific binding of [3H]-Flunitrazepam, relative to control levels ([2]; Diazepam 10^−6M + FQSE 10^−4M, 30 min incubation, 24° C.) | Specific binding of [3H]-Flunitrazepam, relative to control levels ([2]; Diazepam 10^−6M + FQSE 10^−5M, 25 min pre-incubation + 30 min incubation, 4° C.) | Specific binding of [3H]-Flunitrazepam, relative to control levels ([2]; Diazepam 10^−6M + FQSE 10^−5M, 25 min pre-incubation + 30 min incubation, 24° C.) | Specific binding of [3H]-Flunitrazepam, relative to control levels ([2]; Diazepam 10^−6M + FQSE 10^−5M, 30 min incubation, 4° C.) | Specific binding of [3H]-Flunitrazepam, relative to control levels ([2]; Diazepam 10^−6M + FQSE 10^−5M, 30 min incubation, 24° C.) | blood-brain barrier penetration [3]
C[C@]12N[C@H](Cc3ccccc31)c1ccccc12 [MK-801] | 7 nM |  |  |  |  |  |  |  |  | 
NC(=O)CC[C@H](NC(=O)[C@@H](N)Cc1ccccc1)C(=O)N[C@@H](CO)C(=O)N[C@@H](CCC(=O)O)C(=O)O [FQSE] (H-FQSE-OH) |  | 101.07% | 100.58% | 100.27% | 100.95% | 101.07% | 99.78% | 100.04% | 100.70% | can penetrate blood-brain barrier
